Data published in patent US7659310B2, “Methods of enhancing solubility of agents” (Formatech, Inc., priority 2004, dated 2010).
Values after ≈ are worked out from the molar mass of the structure shown. Values joined by “and” are separate entries in the source; they are usually repeats but may differ in a detail not shown here. Equal values may be shown once. Read-outs that look alike come from different tables or passages of the source. One block for each molecule: values may come before it.

Legend:
[1] = Stability of the solubilized compound (remains soluble) by reverse phase HPLC
Experimental: (§1) Ethanolamine (8 μL) was subsequently added and mixed using a VORTEX®. After mixing, the sample was dispersed in 466 μL of water for injection.
(§2) Ethanolamine (62 μL) was subsequently added and mixed using a VORTEX®. After mixing, the sample was dispersed in 784 μL of water for injection.
(§3) Digoxin (1 mg) was added to 28 μL of oleic acid and mixed using VORTEX. Ethanolamine (6 μL) was subsequently added and mixed using a VORTEX®. After mixing, the sample was dispersed in 966 μL of water for injection.
(§4) Digoxin (1 mg) was added to 1 mL of 0.25 M sodium oleate and mixed using a VORTEX®.
(§5) N-acetylsalicylic acid (18 mg) was added to 31 μL of oleic acid and mixed using a VORTEX®. Ethanolamine (6 μL) was subsequently added and mixed using a VORTEX®. After mixing, the sample was dispersed in 963 μL of water for injection.
(§6) N-acetylsalicylic acid (25 mg) was added to 1 mL of 0.25 M sodium oleate and mixed using a VORTEX®.
(§7) Paclitaxel (18 mg) was added to 31 μL of oleic acid and mixed using a VORTEX®. Ethanolamine (6 μL) was subsequently added and mixed using a VORTEX®. After mixing, the sample was dispersed in 963 μL of water for injection.
(§8) Paclitaxel (5.6 mg) was added to 1 mL of 0.1 M sodium oleate and mixed using a VORTEX®.
(§9) Paclitaxel (2 mg) was added to 1 mL of 1 M sodium caprylate and mixed by a VORTEX®.
Paclitaxel (7.2 mg) was added to 1 mL of 1 M sodium linoleate and mixed using a VORTEX®. […]
For example, Propofol (1% v/v or 10 mg/mL) was dissolved in 100 mM sodium oleate in 5% (w/v) dextrose in water for injection. The resulting solution containing 1% Propofol was lyophilized. […]

[2] = Solubilization of compounds in fatty acid / fatty acid salt (soluble, formulation clear); details: for solubility: aqueous with cosolvent or surfactant or cyclodextrin
Experimental: as §1, §2, §3, §4, §5, §6, §7, §8, §9
Paclitaxel (7.2 mg) was added to 1 mL of 1 M sodium linoleate and mixed using a VORTEX®.
For example, β-Lapachone was dissolved (25 mg/mL) in ethanol:oleic acid (EtOH:OA) at volume to volume ratios of 70%:30%, 75%:25%, or 80%:20% EtOH:OA.
In another example, β-Lapachone was dissolved (50 mg/mL) in dimethylsulfoxide:oleic acid (DMSO:OA) at volume to volume ratios of 60%:40, 70%:30% DMSO:OA or in DMSO:EtOH:OA (30%:30%:40% v/v).
For example, Propofol (1% v/v or 10 mg/mL) was dissolved in 100 mM sodium oleate in 5% (w/v) dextrose in water for injection. The resulting solution containing 1% Propofol was lyophilized.
For example, Paclitaxel (5 mg/mL) was dissolved in 100 mM sodium oleate in 100% ethanol. Ethanol was completely evaporated using rotary evaporation at 20° C. The Paclitaxel-sodium oleate was reconstituted with WFI or 2.5% glycerol to provide 5 mg/mL, 10 mg/mL, or 20 mg/mL concentration of Paclitaxel.

time remained soluble, formulation stable upon dilution ([1]; 0.25 M sodium oleate, dilution 1:10 in saline, RP-HPLC): up to 24 hours
time remained soluble, formulation stable upon dilution ([1]; oleic acid/ethanolamine formulation, dilution 1:4 in saline, RP-HPLC): up to 24 hours
solubility ([2]; concentration at which soluble and formulation clear, 0.25 M sodium oleate): 1000 µg/mL
solubility ([2]; concentration at which soluble and formulation clear, oleic acid, then ethanolamine, dispersed in water for injection): 1000 µg/mL
SMILES: C[C@H]1O[C@@H](O[C@H]2[C@@H](O)C[C@H](O[C@H]3[C@@H](O)C[C@H](O[C@H]4CC[C@@]5(C)[C@H](CC[C@@H]6[C@@H]5C[C@@H](O)[C@]5(C)[C@@H](C7=CC(=O)OC7)CC[C@]65O)C4)O[C@@H]3C)O[C@@H]2C)C[C@H](O)[C@@H]1O [Digoxin]

SMILES: CC(C)c1cccc(C(C)C)c1O [Propofol]
stability of reconstituted lyophilized compound ([1]; 1% in 100 mM sodium oleate/D5W, lyophilized and reconstituted, RP-HPLC): stable without degradation or impurities
concentration dissolved ([2]; 100 mM sodium oleate in 5% (w/v) dextrose in water for injection (1% v/v)): 10000 µg/mL

SMILES: CC1(C)CCC2=C(O1)c1ccccc1C(=O)C2=O [β-Lapachone]
final concentration of the dispersed compound ([2]; OA-DMSO/EtOH mixture dispersed in equimolar sodium hydroxide solution): 1.5 mg/mL and 2.0 mg/mL and 2.5 mg/mL
concentration dissolved ([2]; in DMSO:OA 60%:40, 70%:30% or DMSO:EtOH:OA 30%:30%:40% v/v): 50000 µg/mL
concentration dissolved ([2]; in ethanol:oleic acid 70%:30%, 75%:25% or 80%:20% v/v): 25000 µg/mL

time remained soluble, formulation stable upon dilution [1]: up to 24 hours
concentration at which soluble and formulation clear [2]: 25000 µg/mL
solubility ([2]; concentration at which soluble and formulation clear): 18000 µg/mL (≈ 99.9 mM)
SMILES: CC(=O)Oc1ccccc1C(=O)O [N-acetylsalicylic acid]

time remained soluble, formulation stable upon dilution [1]: up to 24 hours
fold greater than the solubility in water [2]: 630-850 fold
concentration dissolved ([2]; 100 mM sodium oleate in 100% ethanol): 5000 µg/mL
solubility ([2]; solubilization): 6300 to 8500 µg/mL (≈ 7.38 to 9.95 mM)
SMILES: CC(=O)O[C@H]1C(=O)[C@@]2(C)[C@H]([C@H](OC(=O)c3ccccc3)[C@]3(O)C[C@H](OC(=O)[C@H](O)[C@@H](NC(=O)c4ccccc4)c4ccccc4)C(C)=C1C3(C)C)[C@]1(OC(C)=O)CO[C@@H]1C[C@@H]2O [Paclitaxel]
